Measured values: US20250221936A1, “ENGINEERED HEMICHANNELS, ENGINEERED VESICLES, AND USES THEREOF” (VIRGINIA TECH INTELLECTUAL PROPERTIES, INC., priority 2018, published 2025)
Entries after “also recorded” stand apart in the source; their conditions may differ.

Tests used:
PKC-ε = target: T1, PKC-ε (Homo sapiens, UniProt Q02156); experiment: EDC cross-linking and MS/MS, PKC-ε; format: binding
T1 construct: purchased Life 37717L
T1 sequence (Q02156 1-737): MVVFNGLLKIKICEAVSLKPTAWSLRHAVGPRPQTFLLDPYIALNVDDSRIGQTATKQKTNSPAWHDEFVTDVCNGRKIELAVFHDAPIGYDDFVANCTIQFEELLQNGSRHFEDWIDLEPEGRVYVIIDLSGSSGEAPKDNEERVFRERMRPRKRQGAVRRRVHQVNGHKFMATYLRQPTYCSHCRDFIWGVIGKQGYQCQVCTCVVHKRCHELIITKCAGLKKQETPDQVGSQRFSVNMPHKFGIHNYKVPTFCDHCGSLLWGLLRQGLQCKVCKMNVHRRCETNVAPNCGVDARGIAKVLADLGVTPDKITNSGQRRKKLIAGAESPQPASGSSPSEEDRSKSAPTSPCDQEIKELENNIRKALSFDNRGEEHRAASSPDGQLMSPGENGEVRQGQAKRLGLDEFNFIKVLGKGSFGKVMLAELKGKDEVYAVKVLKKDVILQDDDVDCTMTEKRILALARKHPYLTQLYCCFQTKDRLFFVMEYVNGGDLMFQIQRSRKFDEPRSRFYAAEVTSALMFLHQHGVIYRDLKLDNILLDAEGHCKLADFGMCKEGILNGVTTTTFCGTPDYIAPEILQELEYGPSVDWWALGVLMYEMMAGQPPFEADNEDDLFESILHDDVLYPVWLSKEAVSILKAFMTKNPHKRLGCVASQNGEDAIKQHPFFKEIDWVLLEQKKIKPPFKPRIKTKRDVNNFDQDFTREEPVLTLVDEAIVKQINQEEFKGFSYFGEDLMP
Experimental: To characterize the interaction between the Cx43 CT substrate and peptides, the in vitro kinase assay was performed as above with modification and the constituents then subjected to a cross-linking reaction. The assay buffer used was 20 mM 3-(N-morpholino) propanesulfonic acid (MOPS), pH 7.2. All other reagents present in the kinase reaction were maintained as described above. The reaction was allowed to proceed at 37° C. for 15 minutes. Afterwards, the carbodiimide crosslinker 1-Ethyl-3-(3-dimethylaminopropyl) carbodiimide HCl (EDC) (Thermo, 22980) was added to each solution for a final concentration of 20 mM. The solution was allowed to cross-link for one hour at room temperature. The reaction was stopped by the addition of 4×LDS loading buffer, boiled for 5 minutes and subsequently separated by PAGE. The resulting gel was stained in Coomassie brilliant blue (Sigma, B0770) for two hours and destained in a solution of 4% methanol 7% acetic acid overnight. Gel bands were subsequently excised for mass spectrometric analysis. For the direct interaction between protein and peptides, PBS, pH 7.5 was used as the coupling buffer. The protein (50 μg/ml) and peptide (25 μM) were allowed to react at room temperature for one hour before EDAC was added to the reaction mixture. The reaction was Western blotted for Cx43, GST or NeutroAvidin. […]

silicone implants = settings: days 1, 2, 3, 14, and 28; cited from earlier work
[1] = target: T2, PKC-ε phosphorylation of Cx43-CT substrate at Ser368 (Rattus norvegicus, UniProt P08050); settings: purified PKC enzyme and Cx43 CT substrate; cited from earlier work
T2 construct: substrate (Cx43-CT: amino acids 255 to 382); GST (N); made in house; host or cells: E. coli BL21 (Cx43 CT); PKC-ε purchased (Life, 37717L)
T2 sequence (P08050 255-382): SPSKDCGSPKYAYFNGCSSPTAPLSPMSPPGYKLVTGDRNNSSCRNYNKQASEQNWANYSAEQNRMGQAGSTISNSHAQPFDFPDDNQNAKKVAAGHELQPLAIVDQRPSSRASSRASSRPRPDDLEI

[2] = system: human MGMT-deficient and TMZ-resistant GBM cells; settings: cited from earlier work
cerebral lesion = settings: 100 μM in 2% collagen within HFM; cited from earlier work
[3] = system: choroidal neovascularization; settings: mouse, in vivo; cited from earlier work
cornea = settings: rat, in vivo; cited from earlier work
Cx43-HeLa = format: cell-based
Experimental: The first tests of JM1 and JM2 were performed and the experiments centered on the basic cell biology of the peptides.

Cx43-Hela cells = experiment: Cx43 and ZO-1 immunofluorescent labeling; format: cell-based; settings: 10 μM for 2, 4, 24, or 48 hours
Experimental: Given that the 10UM concentration of peptide was not toxic to cells, the inventors treated Cx43-Hela cells with 10 μM JM1 or JM2 for 2, 4, 24, or 48 hours followed by fixation and immunofluorescent labeling of Cx43 and ZO-1. Said peptides can be loaded into the provided EVs and can elicit results similar to those observed for naked peptide as follows. […] However, the most striking effects were on ZO-1 organization. In control cells ZO-1 localized to cell borders, often at sites of small, finger-like projections between the cells. Cytoplasmic ZO-1 was also notable. In JM-treated cells a strong contrast in the ratio of cell border to cytoplasmic ZO-1 was found, with relative levels at cell borders being increased over controls. […] There was also a noticeable increase in the number of cells per area of field, supporting the earlier observation that JM2 treated cells appeared to proliferate and survive at an increased rate.

Cx43 hemichannel = target: T3, Cx43 hemichannel (Homo sapiens, UniProt P17302); settings: 50 μM for 2 hrs; cited from earlier work
T3 construct: expressed in transfected cells; host or cells: HeLa (Cx43-HeLa)
T3 sequence (P17302 2-382 limits assumed): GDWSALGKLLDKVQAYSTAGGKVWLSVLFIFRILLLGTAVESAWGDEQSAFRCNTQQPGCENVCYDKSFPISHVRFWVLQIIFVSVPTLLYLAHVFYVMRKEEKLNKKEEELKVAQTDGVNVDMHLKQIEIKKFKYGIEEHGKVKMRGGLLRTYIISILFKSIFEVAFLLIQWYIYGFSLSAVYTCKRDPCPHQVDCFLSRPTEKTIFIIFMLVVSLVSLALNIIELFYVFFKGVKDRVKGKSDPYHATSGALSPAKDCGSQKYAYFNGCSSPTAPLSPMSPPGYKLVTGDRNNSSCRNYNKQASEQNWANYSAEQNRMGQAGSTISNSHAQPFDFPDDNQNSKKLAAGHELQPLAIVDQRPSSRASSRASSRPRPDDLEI

| Sequence | interaction with PKC-ε (PKC-ε) | wound-healing and foreign body responses (silicone implants) | S368 phosphorylation in vitro [1] | sensitivity to TMZ [2] | density of GFAP-positive astrocytes (cerebral lesion) | CNV injury spread and retinal function (ERG) [3] | corneal closure and regeneration (cornea) | toxicity (cell death) (Cx43-HeLa) | confluence (Cx43-HeLa; 24 hours) | Cx43 and ZO-1 localization (Cx43-Hela cells) | hemichannel activity (Cx43 hemichannel) |
| --- | --- | --- | --- | --- | --- | --- | --- | --- | --- | --- | --- |
| RQPKIWFPNRRKPWKKRPRPDDLEI [alpha CT1] | no evidence for interaction between PKCE and alpha CT1 | attenuating neutrophil infiltration, increasing vascularity of the capsule tissue, reducing type I collagen deposition around the implant, and reducing the continued presence of contractile myofibroblasts | promoted S368 phosphorylation in vitro in a dose-dependent manner | sensitized human MGMT-deficient and TMZ-resistant GBM cells to TMZ treatment | much lower density of GFAP-positive astrocytes | reduced CNV injury spread and improved retinal function | faster closure and more complete corneal regeneration than control corneas |  |  |  |  |
| VFFKGVKDRVKGRSD [JM2] |  |  |  |  |  |  |  | no obvious toxicity | more confluent than control cells | greater cytoplasmic Cx43 was observed; also recorded: well defined cell-cell interfaces | significantly reduced hemichannel activity |
